We go through six molecules from patent publication US20090215895A1, “Therapeutic and carrier molecules” (PEPLIN BIOLIPIDS PTY LTD, priority 2004, published 2009).

In one test the test system is neutrophil NADPH oxidase. Briefly: Neutrophil respiratory burst (NADPH oxidase activation, chemiluminescence). The class given is cell-based, human. The following applies: 20 μM, 10 min, lucigenin-dependent chemiluminescence. How it is done:
The structure of PT2 is shown in (c) above. In this screening assay, neutrophils were prepared from the blood of healthy volunteers. Freshly collected blood was layered onto a Hypaque-Ficoll medium of density 1.114 and centrifuged at 400 g for 30 mins at room temperature. After centrifugation, the leukocytes resolved into two distinct bands, with neutrophils being present in the second band (Ferrante and Thong, J. Immun. Methods 48:81-85, 1982).
Activation of the neutrophil NADPH oxidase was measured by lucigenin-dependent chemiluminescence following a 10 min incubation of PT2 (20 μM, final concentration) with 1×10^6 neutrophils from different donors (Power et al, J. Immunol. 159:2952-2959, 1997). Arachidonic acid (20:4, n-6) was used as a positive stimulator of the oxidase
Neutrophil respiratory burst was determined as previously described (Li et al, J. Clin. Invest. 97:1605-1609, 1996).

Test [1] is described as follows: PQ (phenylquinolic acid) writhing test. The class given is in vivo. The following applies: intraperitoneal, 30 min before pain stimulus. On the procedure: (§1) Investigations of the effects of PT2 on pain induced by phenylquinolic acid (PQ writhing) and formalin have been made. In both the PQ writhing test (FIG. 3) and the formalin algesia test (FIG. 4), PT2 administered by intraperitoneal inoculation reduced pain and compared favourably with pain reduction by aspirin (oral, 100 mg/kg). In these tests, the EPUFA was administered 30 min before the pain stimulus and effects recorded over the following 20 min.
In general terms: Writhing tests count abdominal constrictions after an irritant is injected.

Test [2] can be described thus: Formalin-induced pain test (hind paw licking time). Particulars: for % inhibition of pain response, Phase I (0-5 mins) / % inhibition of pain response, Phase II (15-20 mins): 30 min prior to formalin, mean of 5 animals. In kind it is in vivo. How it is done: as §1
Investigations of PT2 in the formalin-induced analgesia model looking specifically at the biphasic response have also been undertaken and are shown in Table 1. It is well documented that in this model, aspirin suppresses only pain related to the inflammatory process (15-20 mins post-administration of formalin), while morphine suppresses pain in both phases of the response (0-5 min and 15-20 min).
Compounds were administered intraperationedly (ip) 30 min prior to the administration of formalin (0.02 ml, 1% solution) via subplantar injection into the right hind paw. Reduction of the induced hind paw licking time recorded during the following 0-5 min period (Phase I response) or 15-20 min period (Phase II response) was determined. The data in Table 1 are the mean responses of 5 animals in each group.

A further test concerns HUVEC. Briefly: Agonist-enhanced neutrophil adherence to HUVEC. Particulars: 20 μmol/l, 1 hr pre-treatment, TNF 4 hr. The class given is cell-based, human. On the procedure: FIG. 11 is a representation showing effect of β-oxa; β-thia and natural PUFA on TNF-enhanced neutrophil adherence to HUVEC. HUVEC were pre-treated with the fatty acids (20 μmol/l) for 60 min at 37° C. before being stimulated with TNF (125 U/200 μl medium) for 4 hr at 37° C. The cells were then co-incubated with neutrophils (5×10^5 cells/well) at 37° C. for 30 min and the degree of neutrophil adherence quantitated. The results are expressed as % of control and represent the mean±SEM of three separate experiments each performed in triplicate. * p<0.05, ***p<0.001, for significant differences between pre-treatment with fatty acid and control (one-way analysis of variance followed by the Dunnett test for multiple comparisons).
Adhesion of neutrophils, prepared by the rapid-single-step method (Ferrante et al, J. Immun. Methods 36:109-117, 1980), to HUVEC isolated from umbilical cords was carried out essentially as described (Huang et al, 1997 supra).
The magnitude of the suppressive effect of -MP3 was dependent on-pre-treatment time and concentration with significant effects observed with a pre-treatment time of 1 hr and a concentration of ≧5 μmol/l.

The subject of a further test is IκBα. Briefly: TNF-induced degradation of IκBα in HUVEC (Western blot). The class given is cell-based. Particulars: Homo sapiens, 20 μmol/l, 30 min pre-treatment, TNF 10 min. On the procedure:
FIG. 17 is a representation showing (A) the effect of MP3 (β-oxa 23:4n-6) and DHA on TNF-induced degradation of IκBα in HUVEC. Cells were pre-treated with the fatty acids (20 μmol/l) for 30 min and then stimulated with TNF (125 U/ml) for 10 min. After cell lysis the proteins were analyzed by Western blots using anti-IκBα antibodies. (B) The effects of β-oxa-23:4n-6 on TNF-induced activation of transcriptional factor, NFκB in HUVEC. Cells were pre-treated with β-oxa-23:4n-6 (20 μmol/l) for 30 min and then stimulated with TNF for 2 hr. After cell lysis, nuclear fractions were prepared, nuclear proteins separated by SDS PAGE (12% w/v gel), transferred to nitrocellulose and probed with an anti-NFκB p65 antibody (Santa Cruz). […] (C) The effect of β-oxa 23:4n-6 on TNF-stimulated activation of IKK. Cells were pre-treated with β-oxa 23:4n-6 (20 μmol/l) for 30 min and then stimulated with TNF for 5 min. After cell lysis IKK was immunoprecipitated with anti-IKKα antibody and kinase activity determined. […]
Proteins (50 μg) were separated by SDS PAGE (12% w/v gel), transferred to nitrocellulose and probed with an anti-NFκB p65 or anti-IκBα antibody (Santa Cruz Biotech, Santa Cruz, Calif.). Immunocomplexes were detected by enhanced chemiluminescence (Hii et al, 1998 supra).
On the technique in general: A western blot detects proteins with antibodies after separation by electrophoresis.

A short description of test [3]: In vitro assays (not specified).
The next test relates to cancer cells. Briefly: Killing of cancer cells. The class given is cell-based.
A further test concerns the target T1, PKC isozyme δ (Homo sapiens, UniProt Q05655).
T1 construct: endogenous in cells; host or cells: HL-60
Briefly: PMA-induced PKC translocation in HL-60 cells (Western blot). Details: key: +++: strong inhibition of PKC activation; −: no inhibition of PKC activation. The following applies: 20 μM, 60 min. The class given is cell-based. How it is done:
(§2) The effects of nitroanalogs of PUFAs on PKC activation were determined. Lx compounds at a concentration of 20 μM were incubated with the HL-60 cell line (final condition 10^6 cells/ml) for 60 min. PKC activation was then attempted to be induced by PMA. PKC enzyme translocation was quantitated by Western blot.

For the next test, the target named is T2, PKC isozyme ε (Homo sapiens, UniProt Q02156).
T2 construct: endogenous in cells; host or cells: HL-60
T2 sequence (Q02156 1-737): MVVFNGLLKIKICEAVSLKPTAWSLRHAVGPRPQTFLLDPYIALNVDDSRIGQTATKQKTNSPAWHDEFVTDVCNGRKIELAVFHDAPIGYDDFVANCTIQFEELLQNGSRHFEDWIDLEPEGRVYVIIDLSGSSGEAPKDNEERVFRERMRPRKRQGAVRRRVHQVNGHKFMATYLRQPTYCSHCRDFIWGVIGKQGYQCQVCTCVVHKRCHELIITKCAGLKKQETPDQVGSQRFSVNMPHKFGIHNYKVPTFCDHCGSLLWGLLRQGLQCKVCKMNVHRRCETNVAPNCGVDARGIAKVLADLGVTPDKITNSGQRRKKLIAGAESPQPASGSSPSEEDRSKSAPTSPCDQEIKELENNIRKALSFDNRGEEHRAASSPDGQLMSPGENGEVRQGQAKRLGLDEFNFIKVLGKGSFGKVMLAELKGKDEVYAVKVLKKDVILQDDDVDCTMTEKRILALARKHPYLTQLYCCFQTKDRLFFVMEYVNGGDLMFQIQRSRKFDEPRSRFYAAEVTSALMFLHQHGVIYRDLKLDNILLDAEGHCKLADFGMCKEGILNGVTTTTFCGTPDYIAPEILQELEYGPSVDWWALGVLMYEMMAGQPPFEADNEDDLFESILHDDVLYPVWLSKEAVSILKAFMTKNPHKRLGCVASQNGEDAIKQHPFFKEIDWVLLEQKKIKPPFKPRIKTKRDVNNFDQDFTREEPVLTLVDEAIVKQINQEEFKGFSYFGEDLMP
Described as above. In kind it is cell-based. Further details: key: +++: strong inhibition of PKC activation; −: no inhibition of PKC activation. The following applies: 20 μM, 60 min. On the procedure:
as §2

A further test concerns the target T3, PKC isozyme α (Homo sapiens, UniProt P17252).
T3 construct: endogenous in cells; host or cells: HL-60
The test is described as above. In kind it is cell-based. Details: key: +++: strong inhibition of PKC activation; −: no inhibition of PKC activation. The following applies: 20 μM, 60 min. On the procedure: as §2

In the next test the target is T4, PKC isozyme β2 (Homo sapiens, UniProt P05771).
T4 construct: endogenous in cells; host or cells: HL-60
Described as above. The class given is cell-based. Details: key: +++: strong inhibition of PKC activation; −: no inhibition of PKC activation. The following applies: 20 μM, 60 min. On the procedure: as §2

Another test deals with E-selectin. Briefly: Adhesion molecule expression on HUVEC (ELISA, mRNA slot blot). In kind it is cell-based, human. The following applies: 20 μmol/l, 60 min pre-treatment. How it is done:
(§3) FIG. 13 is a representation showing effect of MP3 (β-oxa-23:4n-6) and 20:4n-6 on time-related changes in TNF-α-induced E-selectin, ICAM-1 and VCAM-1 expression on HUVEC. HUVEC were pre-treated with 20 μmol/l β-oxa-23:4n-6 (closed triangles), 20 μmol/l 20:4n-6 (open squares), or DPC (control) for 60 min and then further incubated with TNF-α (125 U/200 μl medium) for up to 24 hr. The expression of E-selectin, ICAM-1 and VCAM-1 adhesion molecules was determined by ELISA. The results are expressed as % of control and represent the mean±SEM of three separate experiments each performed in triplicate. * p<0.05, **p<0.01, ***p<0.001, for significant differences between pre-treatment with fatty acid and corresponding control at a particular time point (one-way analysis of variance followed by the Dunnett test for multiple comparisons). Inset: The effect of β-oxa-23:4n-6 on TNF-α-induced expression of E-selectin mRNA in HUVEC. HUVEC were pre-incubated with β-oxa-23:4n-6 (20 μmol/l) or DPC (control) in 1 ml of medium at 37° C. for 60 min. After the addition of TNF-α, the cells were further incubated at 37° C. for 2 hr. E-selectin mRNA expression was then determined and the results expressed as relative %. Results are the mean±SEM of three separate experiments each performed in quadruplicate. *p<0.0001, for significant differences between pre-treatment with β-oxa-23:4n-6, and control (two-tailed Student's t-test for unpaired data).
(§4) HUVEC were stimulated with TNF, bacterial lipopolysaccharide (LPS) or PMA for 24 hr. Expression of E-selectin, ICAM-1 and VCAM-1 was determined by an enzyme-linked immunosorbent assay (ELISA) or as mRNA using a slot blot technique (Huang et al 1997 supra).
Background: An ELISA detects its analyte on a solid surface through an enzyme-linked reagent.

The next test concerns VCAM-1. Briefly: Adhesion molecule expression on HUVEC (ELISA). In kind it is cell-based, human. The following applies: 20 μmol/l, 60 min pre-treatment. How it is done:
as §3, §4

For the next test, the system named is ICAM-1. Briefly: Adhesion molecule expression on HUVEC (ELISA). In kind it is cell-based, human. The following applies: 20 μmol/l, 60 min pre-treatment. How it is done:
as §3, §4

Entries after “also recorded” stand apart in the source; their conditions may differ.

T4 sequence (P05771 1-673 isoform P05771-2): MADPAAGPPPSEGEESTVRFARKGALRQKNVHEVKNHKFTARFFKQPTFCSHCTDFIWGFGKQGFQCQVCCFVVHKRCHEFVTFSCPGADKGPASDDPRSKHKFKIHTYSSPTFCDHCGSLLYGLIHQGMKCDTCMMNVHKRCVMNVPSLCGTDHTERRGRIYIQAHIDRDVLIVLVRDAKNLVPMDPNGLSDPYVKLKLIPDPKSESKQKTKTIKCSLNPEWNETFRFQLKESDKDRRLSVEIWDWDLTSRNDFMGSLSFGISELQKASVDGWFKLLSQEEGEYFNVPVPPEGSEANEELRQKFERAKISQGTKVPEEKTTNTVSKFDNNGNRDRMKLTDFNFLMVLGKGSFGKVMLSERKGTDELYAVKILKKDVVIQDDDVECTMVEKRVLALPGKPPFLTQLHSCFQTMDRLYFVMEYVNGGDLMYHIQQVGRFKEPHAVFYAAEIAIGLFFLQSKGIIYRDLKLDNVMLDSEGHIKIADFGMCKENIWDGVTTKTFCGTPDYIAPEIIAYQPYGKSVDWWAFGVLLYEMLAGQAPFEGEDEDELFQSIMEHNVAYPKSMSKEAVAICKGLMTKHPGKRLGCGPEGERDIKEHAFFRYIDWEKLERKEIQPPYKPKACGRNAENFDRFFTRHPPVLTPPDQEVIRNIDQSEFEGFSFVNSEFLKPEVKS
T1 sequence (Q05655 whole entry): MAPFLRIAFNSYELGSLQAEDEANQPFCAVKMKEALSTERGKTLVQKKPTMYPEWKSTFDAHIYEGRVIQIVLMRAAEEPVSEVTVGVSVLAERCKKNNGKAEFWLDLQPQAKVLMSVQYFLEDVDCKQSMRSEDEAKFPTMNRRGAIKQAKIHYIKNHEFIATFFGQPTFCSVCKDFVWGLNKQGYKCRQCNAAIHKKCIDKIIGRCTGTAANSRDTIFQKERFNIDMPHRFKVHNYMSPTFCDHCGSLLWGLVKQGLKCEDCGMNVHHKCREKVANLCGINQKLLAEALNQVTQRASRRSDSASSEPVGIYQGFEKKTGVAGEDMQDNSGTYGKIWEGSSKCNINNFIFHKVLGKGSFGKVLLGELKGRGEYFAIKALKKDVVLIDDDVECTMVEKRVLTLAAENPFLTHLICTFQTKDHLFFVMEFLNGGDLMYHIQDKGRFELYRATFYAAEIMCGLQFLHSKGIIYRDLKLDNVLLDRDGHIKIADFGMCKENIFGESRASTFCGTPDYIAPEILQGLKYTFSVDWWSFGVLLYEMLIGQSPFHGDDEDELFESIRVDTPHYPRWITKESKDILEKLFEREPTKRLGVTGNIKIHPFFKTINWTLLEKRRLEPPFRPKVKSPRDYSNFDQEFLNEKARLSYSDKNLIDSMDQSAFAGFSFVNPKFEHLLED

For the molecule `CCCCC/C=C\C/C=C\C/C=C\C/C=C\CCCC(=O)NC(CC(=O)O)C(=O)O` (centres unmarked) [PT2], the “Stimulation of the neutrophil respiratory burst” value with neutrophil NADPH oxidase is “lacks the ability to stimulate the neutrophil respiratory burst”. Also, the “Pain reduction in PQ writhing test” value in test [1] is recorded as “reduced pain”. The “% inhibition of pain response, Phase I (0-5 mins)” value in [2] (30 mg/kg ip) worked out at 0%; in test [2] (100 mg/kg ip) it was 30%. Also, the “% inhibition of pain response, Phase II (15-20 mins)” value is listed as 41% in test [2] (30 mg/kg ip) and 97% in test [2] (100 mg/kg ip). Further, the “Pain reduction in formalin test” value in [2] (intraperitoneal, 30 min before pain stimulus) is recorded as “reduced pain; also recorded: acts similarly to aspirin in having its major effect on the later phase of the pain response”.
Turning to `CC/C=C\C/C=C\C/C=C\C/C=C\C/C=C\C/C=C\CCC(=O)O` [22:6n-3, docosahexaenoic acid, reference compound], in the test with HUVEC, the “Inhibition of TNF-α-enhanced neutrophil adhesion to HUVEC” value is on record as “no significant effect”. For the same molecule, the inhibition at 20 µM in the test with IκBα is under 50%.
As for β-oxa-23:0 [MP1], the “Biological activity in in vitro assays” value in test [3] is “biologically inactive”.
On to `CCCCCCCCCCCCCCCCCC(CCC(=O)O)(CCC(=O)O)[N+](=O)[O-]` [Lx8], for which the “Killing of cancer cells” value in the test with cancer cells was “kills cells very poorly”. The “Inhibition of PKC activation, isozyme δ” value at PKC isozyme δ was “+++”. The “Inhibition of PKC activation, isozyme ε” value on PKC isozyme ε was “+++”. On PKC isozyme α, the “Inhibition of PKC activation, isozyme α” value is “+++”. Further, the “Inhibition of PKC activation, isozyme β2” value on PKC isozyme β2 is “+++”.
On to `CCCCC/C=C\C/C=C\C/C=C\C/C=C\CCCC(=O)O` [arachidonic acid, reference compound], for which the “Suppression of TNF-α-induced E-selectin expression on HUVEC” value in the test with E-selectin is “no significant effect”. The “Stimulation of the neutrophil respiratory burst” value with neutrophil NADPH oxidase was “able to elicit a strong respiratory burst”. Besides, in the test with HUVEC, the “Inhibition of TNF-α-enhanced neutrophil adhesion to HUVEC” value was “no significant effect”. In addition, in the test with VCAM-1, the “Suppression of TNF-α-induced VCAM-1 expression on HUVEC” value is on record as “no significant effect”. The “Suppression of TNF-α-induced ICAM-1 expression on HUVEC” value in the test on ICAM-1 is given as “no significant effect”.
On to `CCCCC/C=C\C/C=C\C/C=C\C/C=C\CCCC(CCC(=O)O)(CCC(=O)O)[N+](=O)[O-]` [Lx9], for which the “Killing of cancer cells” value with cancer cells is “strong in killing cancer cells”. Moreover, the “Inhibition of PKC activation, isozyme α” value on PKC isozyme α is reported as “−”. Moreover, the “Inhibition of PKC activation, isozyme β2” value on PKC isozyme β2 is given as “+++”.

As usually defined, the inhibition is the percentage by which the read-out fell short of the control.
